“Also recorded” adds a separate entry of the source.
Legend:
[1] = biological target: T1, SNA-biotin binding to fetuin (Bos taurus, UniProt P12763); assay: biochemical; conditions: peptide mg/mL: S2PL 1.2, ACS2P1 1.0, S2(14-2.3) 1.0, S2P2 1.1, S2P3 0.51, S2P4 0.98, S2P6 0.85, S3P1 3.2, S3P2 3.1, S3P3 4.5, S3P4 3.3, S3P5 0.48, S3P9a 1.7, SPYGRC 4.4, S2(WGA) 1.0, WGA (62-73) 1.0; + enhancement, − inhibition
T1 sequence (P12763 19-359): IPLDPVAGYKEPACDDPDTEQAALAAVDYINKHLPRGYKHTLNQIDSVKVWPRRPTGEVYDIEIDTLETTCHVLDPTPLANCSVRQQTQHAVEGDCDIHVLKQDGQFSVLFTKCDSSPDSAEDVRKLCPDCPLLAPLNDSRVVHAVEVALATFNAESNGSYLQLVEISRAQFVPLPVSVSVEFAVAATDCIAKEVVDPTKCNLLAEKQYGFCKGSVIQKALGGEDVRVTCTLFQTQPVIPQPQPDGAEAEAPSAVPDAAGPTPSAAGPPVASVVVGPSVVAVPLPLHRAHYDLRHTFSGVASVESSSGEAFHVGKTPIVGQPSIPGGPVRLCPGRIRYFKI
Experimental: (§1) The solution was removed by aspiration and replaced with 100 μl of 1% BSA in PBS containing 0.05% Tween 20 (PBST). After incubation for 2-4 hours at room temperature, the microtiter wells were washed four times with 300 μl of PBST. Peptides ranging in concentration from 0.5 to 4.5 mg/ml in PBS (40 μl) were added to each well and PT-biotin (10 μl containing 10 ng in PBS) was then added to the microtiter wells. After incubating for 1 hour, the binding reaction was stopped by aspirating the solutions and the plate was washed with PBST (300 μl). Horseradish peroxidase-conjugated avidin (100 μl, 1/3000 dilution in PBST to a concentration of 0.3 μg/ml) was then added to the wells, and the plates were incubated at ambient temperature for 1 hour. After washing the wells as described above, the substrate solution [1 mM ABTS in 5 mM citrate buffer, pH 4.2, containing 0.1% hydrogen peroxide, v/v) was added and the plates were incubated for 30 minutes. Color development was recorded at 405 nm using a Titertek Multiskan MC plate reader. Maximum binding was determined in the absence of peptide, and background binding was measured in wells coated with BSA only. Binding assays for each peptide were done in duplicate. Binding inhibition experiments utilizing SNA-, WGA-, and MAL-biotin were performed as described above using 10 ng of each biotinylated lectin in PBS.

[2] = biological target: T2, WGA-biotin binding to fetuin (Bos taurus, UniProt P12763); assay: biochemical; conditions: for Percent Changes in Binding Activity WGA/fetuin: peptide mg/mL: S2PL 1.2, ACS2P1 1.0, S2(14-2.3) 1.0, S2P2 1.1, S2P3 0.51, S2P4 0.98, S2P6 0.85, S3P1 3.2, S3P2 3.1, S3P3 4.5, S3P4 3.3, S3P5 0.48, SPYGRC 4.4, S2(WGA) 1.0, WGA (62-73) 1.0, + enhancement, − inhibition
T2 sequence (P12763 19-359): T1 sequence (P12763 19-359)
Experimental: as §1

[3] = biological target: T3, PT-biotin binding to asialofetuin (Bos taurus, UniProt P12763); assay: PT-biotin binding to asialofetuin, binding inhibition assay; parameters: species or system Bordetella pertussis; conditions: for Percent Changes in Binding Activity PT/asialo-fetuin: peptide mg/mL: S2PL 1.2, ACS2P1 1.0, S2P2 1.1, S2P3 0.51, S2P4 0.98, S2P6 0.85, S3P1 3.2, S3P2 3.1, S3P3 4.5, S3P4 3.3, S3P5 0.48, SPYGRC 4.4, + enhancement, − inhibition; for IC50 PT-b (asialofetuin): wells coated with 3 μg/ml asialofetuin, 2-fold dilutions of peptide in PBS
T3 construct: made in house
T3 sequence (P12763 19-359): T1 sequence (P12763 19-359)
Experimental: (§2) Peptides ranging in concentration from 0.5 to 4.5 mg/ml in PBS (40 μl) were added to each well and PT-biotin (10 μl containing 10 ng in PBS) was then added to the microtiter wells. […] Horseradish peroxidase-conjugated avidin (100 μl, 1/3000 dilution in PBST to a concentration of 0.3 μg/ml) was then added to the wells, and the plates were incubated at ambient temperature for 1 hour. […] Color development was recorded at 405 nm using a Titertek Multiskan MC plate reader. […] Binding assays for each peptide were done in duplicate. Binding inhibition experiments utilizing SNA-, WGA-, and MAL-biotin were performed as described above using 10 ng of each biotinylated lectin in PBS.
(§3) Binding assays for each inhibitor concentration were done at least in duplicate, and the average value varied less than 15%.

[4] = biological target: T4, MAL-biotin binding to fetuin (Bos taurus, UniProt P12763); assay: MAL-biotin binding to fetuin, binding inhibition assay; parameters: species or system Maackia amurensis; conditions: peptide mg/mL: S2PL 1.2, ACS2P1 1.0, S2(14-2.3) 1.0, S2P2 1.1, S2P3 0.51, S2P4 0.98, S2P6 0.85, S3P1 3.2, S3P2 3.1, S3P3 4.5, S3P4 3.3, S3P5 0.48, S3P9a 1.7, SPYGRC 4.4, S2(WGA) 1.0, WGA (62-73) 1.0; + enhancement, − inhibition
T4 construct: purchased Sigma Chemical Company (fetuin); Boehringer Mannheim (MAL-biotin)
T4 sequence (P12763 19-359): T1 sequence (P12763 19-359)
Experimental: as §2, §3

[5] = biological target: T5, ACS2P1-biotin binding to fetuin (Bos taurus, UniProt P12763); assay: biochemical; conditions: peptide μM: ACS2P1 4.1, S2P2 42.5, SPYGRC 5520, S2P3 22.4, S2P4 6.0, S2P6 319, S3P1 1142, S3P2 934, S3P3 16.1, S3P4 6.4, S3P5 22.5; ACS2P1-biotin 0.1 μg; − inhibition, + enhancement
T5 construct: purchased Sigma Chemical Company
T5 sequence (P12763 19-359): T1 sequence (P12763 19-359)

[6] = biological target: T6, PT-biotin binding to fetuin (Bos taurus, UniProt P12763); assay: PT-biotin binding to fetuin, binding inhibition assay; parameters: species or system Bordetella pertussis; conditions: for Percent Changes in Binding Activity PT/fetuin: peptide mg/mL: S2PL 1.2, ACS2P1 1.0, S2(14-2.3) 1.0, S2P2 1.1, S2P3 0.51, S2P4 0.98, S2P6 0.85, S3P1 3.2, S3P2 3.1, S3P3 4.5, S3P4 3.3, S3P5 0.48, S3P9a 1.7, SPYGRC 4.4, S2(WGA) 1.0, WGA (62-73) 1.0, + enhancement, − inhibition
T6 construct: purchased Sigma Chemical Company (fetuin); Connaught Center for Biotechnology Research (PT)
T6 sequence (P12763 19-359): T1 sequence (P12763 19-359)
Experimental: as §2, §3

[7] = biological target: T7, ACS2P1-biotin binding to asialofetuin (Bos taurus, UniProt P12763); assay: Screening of S2 and S3 peptides for inhibition of ACS2P1-biotin binding to asialofetuin; conditions: peptide μM: ACS2P1 4.1, S2P2 42.5, SPYGRC 5520, S2P3 22.4, S2P4 6.0, S2P6 319, S3P1 1142, S3P2 934, S3P3 16.1, S3P4 6.4, S3P5 22.5; ACS2P1-biotin 0.1 μg; − inhibition, + enhancement
T7 construct: made in house
T7 sequence (P12763 19-359): T1 sequence (P12763 19-359)

Compound | Percent Changes in Binding Activity SNA/fetuin [1] | Percent Changes in Binding Activity WGA/fetuin [2] | Percent Changes in Binding Activity PT/asialo-fetuin [3] | Percent Changes in Binding Activity MAL/fetuin [4] | Percent Change in Binding Activity Fetuin [5] | Percent Changes in Binding Activity PT/fetuin [6] | Percent Change in Binding Activity Asialofetuin [7] | IC50 [6] [µM] | effect on PT-biotin binding to asialofetuin, in words [3] | IC50 PT-b (asialofetuin) [3] | IC50 [2] [µM]
YDGKYWSMYSRLRKMLY [Peptide S2P4] | +3(1) Percent | +15 ± 1% | −3(1) Percent | +2(1) Percent | −8 ± 16% | +14 ± 22% | +2 ± 4% | – | – | – | –
CC[C@H](C)[C@H](NC(=O)[C@@H](NC(=O)[C@@H]1CCCN1C(=O)[C@H](CCC(N)=O)NC(=O)CNC(=O)[C@H](CO)NC(=O)[C@H](CCCNC(=N)N)NC(=O)[C@@H](NC(=O)[C@@H](N)Cc1ccccc1)C(C)C)C(C)C)C(=O)NCC(=O)N[C@@H](C)C(=O)N[C@@H](CS)C(=O)N[C@H](C(=O)N[C@@H](CO)C(=O)N1CCC[C@H]1C(=O)N[C@@H](Cc1ccc(O)cc1)C(=O)N[C@@H](CC(=O)O)C(=O)NCC(=O)N[C@@H](CCCCN)C(=O)N[C@@H](Cc1ccc(O)cc1)C(=O)N[C@@H](Cc1c[nH]c2ccccc12)C(=O)N[C@@H](CO)C(=O)N[C@@H](CCSC)C(=O)N[C@@H](Cc1ccc(O)cc1)C(=O)N[C@@H](CO)C(=O)N[C@@H](CCCNC(=N)N)C(=O)N[C@@H](CC(C)C)C(=O)N[C@@H](CCCNC(=N)N)C(=O)N[C@@H](CCCCN)C(=O)N[C@@H](CCSC)C(=O)N[C@@H](CC(C)C)C(=O)N[C@@H](Cc1ccc(O)cc1)C(=O)O)[C@@H](C)O [Peptide S2P6] | +2 ± 2% | +57 ± 0% | −18(1) Percent | +18 ± 16% | +49 ± 5% | −28 ± 6% | +18 ± 16% | 220 ± 60 | – | – | –
TQHGSPYGRC [S2 (14-23)] | +1 ± 2% | +7 ± 1% | – | +32 ± 1% | – | +68 ± 9% | – | – | – | – | –
CITTIYKTGQPAADHYYSKVTA [Peptide S3P3] | +3 ± 0% | +6 ± 3% | −28 ± 7% | +13 ± 15% | −13 ± 16% | +19 ± 67% | −10 ± 11% | – | reduce binding of PT to asialofetuin only; also recorded: inhibit PT-biotin's interaction with asialofetuin in a concentration-dependent manner | above the solubility limits of the peptide in PBS | –
CASPYEGRYRDMYDALRRLLY [Peptide S3P5] | 0(1) Percent | +35 ± 8% | −26 ± 10% | +3 ± 6% | −19 ± 4% | +14 ± 6% | −17 ± 8% | – | reduce binding of PT to asialofetuin only; also recorded: inhibit PT-biotin's interaction with asialofetuin in a concentration-dependent manner | above the solubility limits of the peptide in PBS | –
H-SQYGYCGFGAEY-OH [WGA (62-73)] | −3 ± 2% | −9 ± 1% | – | −1 ± 4% | – | −32 ± 5% | – | 1500 | – | – | 3400

Reference: patent publication US20020054880A1, “Anti-inflammatory, tolerogenic and immunoinhibiting properties of carbohydrate binding-peptides” (priority 1992, published 2002)
